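Values below derive from 48-hour exposures of cells grown in 96-well plates, with endpoints linearly interpolated between the two concentrations bracketing the appropriate inhibition level. GI50 = concentration required for 50% inhibition of growth.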 Activity calls are given as the source filed them. Rule as the data show it: active = GI50 up to about 1.1 µM and inactive = higher.
Legend:
Assay in all cases: DTP human tumour cell line panel, 48 h
786-0 = tested on: 786-0
A549 = tested on: A549
HL-60 = tested on: HL-60
Hs-578T = tested on: Hs-578T
K562 = tested on: K562
KM12 = tested on: KM12
LOX IMVI = tested on: LOX IMVI
MOLT-4 = tested on: MOLT-4
NCI-H226 = tested on: NCI-H226
OVCAR-5 = tested on: OVCAR-5
OVCAR-8 = tested on: OVCAR-8
RXF 393 = tested on: RXF 393
SK-MEL-28 = tested on: SK-MEL-28
SK-MEL-2 = tested on: SK-MEL-2
SK-MEL-5 = tested on: SK-MEL-5
SNB-19 = tested on: SNB-19
SNB-75 = tested on: SNB-75
TK-10 = tested on: TK-10
U-251 = tested on: U-251
UACC-62 = tested on: UACC-62

Structure (SMILES)	GI50 (786-0)	GI50 (A549)	GI50 (HL-60)	GI50 (Hs-578T)	GI50 (K562)	GI50 (KM12)	GI50 (LOX IMVI)	GI50 (MOLT-4)	GI50 (NCI-H226)	GI50 (OVCAR-5)	GI50 (OVCAR-8)	GI50 (RXF 393)	GI50 (SK-MEL-28)	GI50 (SK-MEL-2)	GI50 (SK-MEL-5)	GI50 (SNB-19)	GI50 (SNB-75)	GI50 (TK-10)	GI50 (U-251)	GI50 (UACC-62)
COc1ccc(C(=O)/C=C/c2ccc(O)c(O)c2)c(OC)c1	5.21 µM (inactive)	14 µM (inactive)	0.377 µM (active)	2.19 µM (inactive)	0.442 µM (active)	1.01 µM (active)	3.58 µM (inactive)	2.79 µM (inactive)	6.64 µM (inactive)	15.6 µM (inactive)	10.8 µM (inactive)	8.18 µM (inactive)	7.6 µM (inactive)	2.77 µM (inactive)	1.85 µM (inactive)	2.96 µM (inactive)	1.91 µM (inactive)	6.14 µM (inactive)	1.7 µM (inactive)	2.98 µM (inactive)
CN(O)C(=O)CCC(NC(=O)CCC(N)C(=O)O)C(=O)NCC(=O)O (stereo not given)	> 100 µM (inactive)	> 100 µM (inactive)	> 100 µM (inactive)	> 100 µM (inactive)	> 100 µM (inactive)	> 100 µM (inactive)	> 100 µM (inactive)	> 100 µM (inactive)	> 100 µM (inactive)	> 100 µM (inactive)	> 100 µM (inactive)	> 100 µM (inactive)	> 100 µM (inactive)	> 100 µM (inactive)	> 100 µM (inactive)	> 100 µM (inactive)	> 100 µM (inactive)	> 100 µM (inactive)	> 100 µM (inactive)	> 100 µM (inactive)
O=C1/C(=C/c2ccc(O)cc2)CCc2ccccc21	16.7 µM (inactive)	23.6 µM (inactive)	6.14 µM (inactive)	23 µM (inactive)	13.6 µM (inactive)	17.2 µM (inactive)	20 µM (inactive)	2.82 µM (inactive)	24.5 µM (inactive)	35.7 µM (inactive)	27.2 µM (inactive)	17.1 µM (inactive)	19.2 µM (inactive)	16 µM (inactive)	16.9 µM (inactive)	22.4 µM (inactive)	26.9 µM (inactive)	51.5 µM (inactive)	27.6 µM (inactive)	21.5 µM (inactive)
COC(=O)C1C(O)C(C)C(O)C(C)(O)C=C(C)C2=C3C(=C(C)C(=O)c4c(O)c(c(C)c(OC(C)=O)c43)NC(=O)C(C)=C/C=C\C(C)(O)C(O)C(C)C1O)OCO2 (stereo not given)	> 100 µM (inactive)	88.9 µM (inactive)	25.2 µM (inactive)	> 100 µM (inactive)	81.1 µM (inactive)	80.2 µM (inactive)	35.3 µM (inactive)	67.6 µM (inactive)	> 100 µM (inactive)	> 100 µM (inactive)	> 100 µM (inactive)	> 100 µM (inactive)	> 100 µM (inactive)	22.9 µM (inactive)	18.3 µM (inactive)	> 100 µM (inactive)	> 100 µM (inactive)	> 100 µM (inactive)	> 100 µM (inactive)	53.8 µM (inactive)
COc1ccc2c[n+](C)c3c4cc(OC)c(OC)cc4ccc3c2c1	2.39 µM (inactive)	0.53 µM (active)	8.07 µM (inactive)	2.6 µM (inactive)	2.43 µM (inactive)	1.43 µM (inactive)	4.72 µM (inactive)	3.85 µM (inactive)	15.5 µM (inactive)	8.63 µM (inactive)	2.14 µM (inactive)	15.6 µM (inactive)	18.9 µM (inactive)	10.9 µM (inactive)	14.7 µM (inactive)	2.52 µM (inactive)	2.47 µM (inactive)	17.8 µM (inactive)	1.49 µM (inactive)	18.5 µM (inactive)
Cc1ccc(O)c(C(c2ccc(C(c3cc(C)ccc3O)c3cc(C)ccc3O)cc2)c2cc(C)ccc2O)c1	1.67 µM (inactive)	1.67 µM (inactive)	2.26 µM (inactive)	2.39 µM (inactive)	1.77 µM (inactive)	1.67 µM (inactive)	1.69 µM (inactive)	2.9 µM (inactive)	1.86 µM (inactive)	1.84 µM (inactive)	1.81 µM (inactive)	1.79 µM (inactive)	1.81 µM (inactive)	1.86 µM (inactive)	1.77 µM (inactive)	1.52 µM (inactive)	1.89 µM (inactive)	1.56 µM (inactive)	1.98 µM (inactive)	1.71 µM (inactive)
